Structures are written as SMILES.

For the first experiment, the target named is Protease (Human immunodeficiency virus 1) (UniProt Q9YQ12). Kind of experiment: Potency index, ratio of ursolic acid IC50 to test compound IC50 for HIV1 protease expressed in Escherichia coli.
Protease (Human immunodeficiency virus 1), sequence (Q9YQ12 as listed by the source): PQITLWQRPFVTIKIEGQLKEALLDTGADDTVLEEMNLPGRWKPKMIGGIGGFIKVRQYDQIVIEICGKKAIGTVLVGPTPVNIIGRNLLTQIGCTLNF
Take `CC(C)CN(C[C@@H](O)[C@H](Cc1ccccc1)NC(=O)[C@]12CC[C@@H](C)[C@H](C)[C@H]1C1=CC[C@@H]3[C@@]4(C)CC[C@H](O)C(C)(C)[C@@H]4CC[C@@]3(C)[C@]1(C)CC2)S(=O)(=O)c1ccc(N)cc1`: the Ratio IC50 was 67.

Another experiment deals with Protease (Human immunodeficiency virus 1, UniProt Q9YQ12). Kind of experiment: Inhibition of HIV1 protease expressed in Escherichia coli using Arg-Glu (EDANS)-Ser-Gln-Asn-Tyr-Pro-Ile-Val-Gln-Lys(DABCYL)-Arg as substrate preincubated for 20 to 30 mins followed by substrate addition and measured for 10 mins by FRET assay.
Protease, sequence (Q9YQ12 whole entry): as the sequence (Q9YQ12 as listed by the source) above
For the compound `CC(C)CN(C[C@@H](O)[C@H](Cc1ccccc1)NC(=O)[C@]1(C)CC[C@@H]2C3=CC(=O)[C@@H]4[C@@]5(C)CC[C@H](O)C(C)(C)[C@@H]5CC[C@@]4(C)[C@]3(C)CC[C@@]2(C)C1)S(=O)(=O)c1ccc(N)cc1`, the midpoint of inhibition, the IC50, lay at 490 nM. That is a sub-micromolar value. Consider `CC(C)CN(C[C@@H](O)[C@H](Cc1ccccc1)NC(=O)[C@]12CCC(C)(C)C[C@H]1C1=CC[C@@H]3[C@@]4(C)CC[C@H](O)C(C)(C)[C@@H]4CC[C@@]3(C)[C@]1(C)CC2)S(=O)(=O)c1ccc(N)cc1`, for which it took 170 nM to reach half-maximal inhibition (IC50). Still for that read-out and setting: with `CC(C)CN(C[C@@H](O)[C@H](Cc1ccccc1)NC(=O)[C@]12CCC(C)(C)C[C@H]1C1=CC[C@@H]3[C@@]4(C)CC[C@H](O)C(C)(C)[C@@H]4CC[C@@]3(C)[C@]1(C)CC2)S(=O)(=O)c1ccc([N+](=O)[O-])cc1` the figure was 150 nM. For the compound `CC(C)CN(C[C@@H](O)[C@H](Cc1ccccc1)NC(=O)[C@]12CC[C@@H](C)[C@H](C)[C@H]1C1=CC[C@@H]3[C@@]4(C)C[C@@H](O)[C@H](O)[C@@](C)(CO)[C@@H]4CC[C@@]3(C)[C@]1(C)CC2)S(=O)(=O)c1ccc(N)cc1`, half-maximal inhibition (IC50) required 300 nM. As for `COc1ccc(S(=O)(=O)N(CC(C)C)C[C@@H](O)[C@H](Cc2ccccc2)NC(=O)[C@]23CC[C@@H](C)[C@H](C)[C@H]2C2=CC[C@@H]4[C@@]5(C)CCC(=O)C(C)(C)[C@@H]5CC[C@@]4(C)[C@]2(C)CC3)cc1`, the IC50 (as a rule, the concentration that gives 50% inhibition) is 370 nM. On to `COc1ccc(S(=O)(=O)N(CC(C)C)C[C@@H](O)[C@H](Cc2ccccc2)NC(=O)[C@]23CCC(C)(C)C[C@H]2C2=CC[C@@H]4[C@@]5(C)CC[C@H](O)C(C)(C)[C@@H]5CC[C@@]4(C)[C@]2(C)CC3)cc1`, for which the IC50 amounted to 240 nM.

As for `C=C(C)[C@@H]1CC[C@]2(C(=O)N[C@@H](Cc3ccccc3)[C@H](O)CN(CC(C)C)S(=O)(=O)c3ccc(OC)cc3)CC[C@]3(C)[C@H](CC[C@@H]4[C@@]5(C)CC[C@H](O)C(C)(C)[C@@H]5CC[C@]43C)[C@@H]12`, inhibition was half-maximal at 210 nM (IC50). As for `C=C(C)[C@@H]1CC[C@]2(C(=O)N[C@@H](Cc3ccccc3)[C@H](O)CN(CC(C)C)S(=O)(=O)c3ccc(N)cc3)CC[C@]3(C)[C@H](CC[C@@H]4[C@@]5(C)CC[C@H](O)C(C)(C)[C@@H]5CC[C@]43C)[C@@H]12`, 610 nM corresponded to half-maximal inhibition (IC50). In turn, `CC(C)CN(C[C@@H](O)[C@H](Cc1ccccc1)NC(=O)[C@]12CC[C@@H](C)[C@H](C)[C@H]1C1=CC[C@@H]3[C@@]4(C)CC[C@H](O)C(C)(C)[C@@H]4CC[C@@]3(C)[C@]1(C)CC2)S(=O)(=O)c1ccc(N)cc1` displayed an IC50 of 120 nM.

Compound `C=C(C)[C@@H]1CC[C@]2(C(=O)N[C@@H](Cc3ccccc3)[C@H](O)CN(CC(C)C)S(=O)(=O)c3ccc([N+](=O)[O-])cc3)CC[C@]3(C)[C@H](CC[C@@H]4[C@@]5(C)CC[C@H](O)C(C)(C)[C@@H]5CC[C@]43C)[C@@H]12` gave an IC50 of 1050 nM. Take `CC(C)CN(C[C@@H](O)[C@H](Cc1ccccc1)NC(=O)[C@]1(C)CC[C@H]2C3=CC(=O)[C@@H]4[C@@]5(C)CC[C@H](O)C(C)(C)[C@@H]5CC[C@@]4(C)[C@]3(C)CC[C@@]2(C)C1)S(=O)(=O)c1ccc([N+](=O)[O-])cc1`: the IC50 is 500 nM. `CC(C)CN(C[C@@H](O)[C@H](Cc1ccccc1)NC(=O)[C@]12CC[C@@H](C)[C@H](C)[C@H]1C1=CC[C@@H]3[C@@]4(C)CCC(=O)C(C)(C)[C@@H]4CC[C@@]3(C)[C@]1(C)CC2)S(=O)(=O)c1ccc([N+](=O)[O-])cc1` returned an IC50 of 220 nM. The compound `CC(C)CN(C[C@@H](O)[C@H](Cc1ccccc1)NC(=O)[C@]1(C)CC[C@H]2C3=CC(=O)[C@@H]4[C@@]5(C)CC[C@H](O)C(C)(C)[C@@H]5CC[C@@]4(C)[C@]3(C)CC[C@@]2(C)C1)S(=O)(=O)c1ccc(N)cc1` displayed an IC50 of 580 nM. The same measure, in the same setting: with `COc1ccc(S(=O)(=O)N(CC(C)C)C[C@@H](O)[C@H](Cc2ccccc2)NC(=O)[C@]23CC[C@@H](C)[C@H](C)[C@H]2C2=CC[C@@H]4[C@@]5(C)CC[C@H](O)C(C)(C)[C@@H]5CC[C@@]4(C)[C@]2(C)CC3)cc1` the figure was 460 nM. Still for that read-out and setting: as for `COc1ccc(S(=O)(=O)N(CC(C)C)C[C@@H](O)[C@H](Cc2ccccc2)NC(=O)[C@]2(C)CC[C@@H]3C4=CC(=O)[C@@H]5[C@@]6(C)CC[C@H](O)C(C)(C)[C@@H]6CC[C@@]5(C)[C@]4(C)CC[C@@]3(C)C2)cc1`, the figure is 1850 nM; as for `CC(C)CN(C[C@@H](O)[C@H](Cc1ccccc1)NC(=O)[C@]12CC[C@@H](C)[C@H](C)[C@H]1C1=CC[C@@H]3[C@@]4(C)C[C@@H](O)[C@H](O)[C@@](C)(CO)[C@@H]4CC[C@@]3(C)[C@]1(C)CC2)S(=O)(=O)c1ccc([N+](=O)[O-])cc1`, 170 nM. As to `COc1ccc(S(=O)(=O)N(CC(C)C)C[C@@H](O)[C@H](Cc2ccccc2)NC(=O)[C@]2(C)CC[C@H]3C4=CC(=O)[C@@H]5[C@@]6(C)CC[C@H](O)C(C)(C)[C@@H]6CC[C@@]5(C)[C@]4(C)CC[C@@]3(C)C2)cc1`, the IC50 amounted to 480 nM. As for `CC(C)CN(C[C@@H](O)[C@H](Cc1ccccc1)NC(=O)[C@]12CC[C@@H](C)[C@H](C)[C@H]1C1=CC[C@@H]3[C@@]4(C)CC[C@H](O)C(C)(C)[C@@H]4CC[C@@]3(C)[C@]1(C)CC2)S(=O)(=O)c1ccc([N+](=O)[O-])cc1`, it took 400 nM to reach half-maximal inhibition (IC50). Still for that read-out and setting: with `CC(C)CN(C[C@@H](O)[C@H](Cc1ccccc1)NC(=O)[C@]1(C)CC[C@@H]2C3=CC(=O)[C@@H]4[C@@]5(C)CC[C@H](O)C(C)(C)[C@@H]5CC[C@@]4(C)[C@]3(C)CC[C@@]2(C)C1)S(=O)(=O)c1ccc([N+](=O)[O-])cc1` the figure was 1080 nM; with `COc1ccc(S(=O)(=O)N(CC(C)C)C[C@@H](O)[C@H](Cc2ccccc2)NC(=O)[C@]23CC[C@@H](C)[C@H](C)[C@H]2C2=CC[C@@H]4[C@@]5(C)C[C@@H](O)[C@H](O)[C@@](C)(CO)[C@@H]5CC[C@@]4(C)[C@]2(C)CC3)cc1`, 150 nM. On the same count and under the same terms, as for `CC(C)CN(C[C@@H](O)[C@H](Cc1ccccc1)NC(=O)[C@]12CC[C@@H](C)[C@H](C)[C@H]1C1=CC[C@@H]3[C@@]4(C)CCC(=O)C(C)(C)[C@@H]4CC[C@@]3(C)[C@]1(C)CC2)S(=O)(=O)c1ccc(N)cc1`, the figure is 2370 nM.
